In US8273775B2, “Non-steroidal brassinosteroid mimetic” (priority 2006, dated 2012):

System: gene expression in Col-0 seedling shoots
Assay: Microarray analysis (ATH1 Affymetrix) after BL or abrasin treatment
Format: in vivo, Arabidopsis
Settings: 30 min
Protocol: FIG. 14: Clustering of gene expression profiles by QT-clust analysis. Clusters illustrating the major patterns of the data sets. Points: BIK-30: 30 μM abrasin 30 min; BL-30: 1 μM brassinolide 30 min; DMSO-30: control DMSO 30 min; BIK-120: 30 μM abrasin 120 min; BL-120: 1 μM brassinolide 120 min; DMSO-120: control DMSO 120 min.
Col-0 seeds were germinated vertically on ½ MS medium for 7 days under 16 h light/8 h dark cycles. The seedlings were overlaid with liquid ½ MS medium containing 1 μM brassinolide (BL, Fuji Chemical Industries, Ltd., Toyama, Japan), 30 μM abrasin (BIK, ChemBridge Corporation) and DMSO and treated for 30 and 120 min. The shoot parts were collected for RNA isolation. All sampling points were performed in three independent experiments. RNA was extracted using RNeasy kit (Qiagene). […] total RNA per array was used to hybridise the ATH1 Affymetrix Arabidopsis arrays according to standard procedure. The overrepresentation analyses were performed using BiNGO software (Maere et al., 2005).
We performed a microarray analysis using the Arabidopsis whole genome chip (Affymetix) to determine whether abrasin activated the expression of BR-inducible genes at transcriptional level. Wild-type Col-0 seedlings were exposed to 1 μM BL, 30 μM ABRASIN and DMSO (mock-treatment) for two time points (30 min and 120 min) and the shoot parts were collected for RNA isolation. The analysis of the variance of the normalized gene expression data took in account the variability parameters affecting the expression level: type of hormone treatment, duration of treatment and the interaction between these two.

CC(C)[C@H](C)[C@@H](O)[C@H](O)[C@@H](C)[C@H]1CC[C@H]2[C@@H]3COC(=O)[C@H]4C[C@H](O)[C@H](O)C[C@]4(C)[C@H]3CC[C@]12C [BL, brassinolide, reference compound]
Fold-change AT4G16563 aspartyl protease family protein: 1.44 | Fold-change AT4G16670 expressed protein: 0.78 | Fold-change AT4G16780 homeobox-leucine zipper protein 4 (HAT4)/HD-ZIP protein: 0.62 | Fold-change AT4G17250 expressed protein: 0.86 | Fold-change AT4G17460 homeobox-leucine zipper protein 1 (HAT1)/HD-ZIP protein 1: 0.54 | Fold-change AT4G21510 F-box family protein: 1.47 | Fold-change AT4G23030 MATE efflux protein-related: 1.37 | Fold-change AT4G23070 rhomboid family protein: 1.02 | Fold-change AT4G23810 WRKY family transcription factor: 0.71 | Fold-change AT4G24160 hydrolase, alpha/beta fold family protein: 1.13 | Fold-change AT4G25620 hydroxyproline-rich glycoprotein family protein: 0.87 | Fold-change AT4G25780 pathogenesis-related protein: 0.74 | Fold-change AT4G27970 C4-dicarboxylate transporter/malic acid transport family protein: 1.20 | Fold-change AT4G28240 wound-responsive protein-related: 0.77 | Fold-change AT4G28490 leucine-rich repeat transmembrane protein kinase, putative: 1.00 | Fold-change AT4G28703 expressed protein: 0.85 | Fold-change AT4G28780 GDSL-motif lipase/hydrolase family protein: 1.25 | Fold-change AT4G29070 expressed protein: 0.90 | Fold-change AT4G30080 transcriptional factor B3 family protein: 0.94 | Fold-change AT4G31020 expressed protein: 1.53 | Fold-change AT4G32280 auxin-responsive AUX/IAA family protein (IAA29): 0.66 | Fold-change AT4G33050 calmodulin-binding family protein: 0.99 | Fold-change AT4G33700 CBS domain-containing protein: 0.81 | Fold-change AT4G34610 homeodomain-containing protein: 0.86 | Fold-change AT4G36110 auxin-responsive protein: 2.35 | Fold-change AT4G36780 brassinosteroid signalling positive regulator-related: 0.71 | Fold-change AT4G37240 expressed protein: 1.23 | Fold-change AT4G37290 expressed protein: 0.90 | Fold-change AT4G37590 phototropic-responsive NPH3 family protein: 0.90 | Fold-change AT4G38840 auxin-responsive protein (SAUR14): 1.26 | Fold-change AT4G38850 auxin-responsive protein (SAUR-AC1): 1.43 | Fold-change AT4G38860 auxin-responsive protein (SAUR16): 1.38 | Fold-change AT4G39400 brassinosteroid insensitive 1 (BRI1): 0.96 | Fold-change AT5G02020 expressed protein: 0.99 | Fold-change AT5G05690 cytochrome P450 90A1 (CYP90A1) (CYP90) (CPD): 0.93 | Fold-change AT5G07690 myb family transcription factor (MYB29): 0.82 | Fold-change AT5G08130 basic helix-loop-helix (bHLH) family protein (BIM2): 0.79 | Fold-change AT5G12050 expressed protein: 0.73 | Fold-change AT5G13180 no apical meristem (NAM) family protein: 1.07 | Fold-change AT5G13740 sugar transporter family protein: 0.77 | Fold-change AT5G14730 expressed protein: 0.80 | Fold-change AT5G16200 50S ribosomal protein-related: 0.70 | Fold-change AT5G16980 NADP-dependent oxidoreductase: 1.15 | Fold-change AT5G18750 DNAJ heat shock N-terminal domain-containing protein: 1.03 | Fold-change AT5G19200 short-chain dehydrogenase/reductase (SDR) family protein: 1.22 | Fold-change AT5G19340 expressed protein: 0.68 | Fold-change AT5G24030 C4-dicarboxylate transporter/malic acid transport family protein: 1.43 | Fold-change AT5G24660 expressed protein: 1.33 | Fold-change AT5G25240 expressed protein: 1.21 | Fold-change AT5G25930 leucine-rich repeat family protein: 0.98 | Fold-change AT5G27350 sugar-porter family protein 1 (SFP1): 1.11 | Fold-change AT5G27670 histone H2A: 0.86 | Fold-change AT5G38310 expressed protein: 0.98 | Fold-change AT5G38990; AT5G39000 [AT5G38990, protein kinase family protein: 0.94 | Fold-change AT5G39050 transferase family protein: 1.35 | Fold-change AT5G39610 no apical meristem (NAM) family protein: 0.65 | Fold-change AT5G39970 expressed protein: 1.08 | Fold-change AT5G42830 transferase family protein: 0.87 | Fold-change AT5G47370 homeobox-leucine zipper protein 2 (HAT2): 0.94 | Fold-change AT5G48070 putative xyloglucan endotransglycosylase/hydrolase: 1.12 | Fold-change AT5G48540 33 kDa secretory protein-related: 1.01 | Fold-change AT5G51550 phosphate-responsive 1 family protein: 0.86 | Fold-change AT5G54490 calcium-binding EF-hand protein, putative: 0.37 | Fold-change AT5G54860 integral membrane transporter family protein: 0.92 | Fold-change AT5G55970 zinc finger (C3HC4-type RING finger) family protein: 1.03 | Fold-change AT5G56980 expressed protein: 0.75 | Fold-change AT5G57190 phosphatidylserine decarboxylase: 1.04 | Fold-change AT5G57780 expressed protein: 0.41 | Fold-change AT5G59080 expressed protein: 0.62 | Fold-change AT5G60200 Dof-type zinc finger domain-containing protein: 0.82 | Fold-change AT5G60270 lectin protein kinase family protein: 1.03 | Fold-change AT5G60630 expressed protein: 0.94 | Fold-change AT5G61600 encodes a member of the ERF (ethylene response factor): 0.46 | Fold-change AT5G62360 invertase/pectin methylesterase inhibitor family protein: 0.92 | Fold-change AT5G65310 homeobox-leucine zipper protein 5 (HB-5)/HD-ZIP transcription factor 5: 0.91 | Fold-change AT5G66420 expressed protein: 1.04 | Fold-change AT5G66590 allergen V5/Tpx-1-related family protein: 1.21 | Fold-change AT5G67450 zinc finger (C2H2 type) protein 1 (AZF1): 1.79 | Fold-change of gene AT4G16140 (proline-rich family protein) (245479_at, Cluster 6): 0.83 | Fold-change of gene AT4G15260 (UDP-glucoronosyl/UDP-glucosyl transferase family protein) (245543_at, Cluster 7): 1.01 | Fold-change of gene AT5G09440 (phosphate-responsive protein, putative) (245885_at, Cluster 5): 0.58 | Fold-change of gene AT1G77380 (amino acid carrier) (246389_at, Cluster 10): 0.94 | Fold-change of gene AT5G15740 (expressed protein) (246516_at, Cluster 5): 0.95 | Fold-change of gene AT5G65300 (expressed protein) (247177_at, Cluster 5): 0.25 | Fold-change of gene AT5G64890 (expressed protein) (247205_at, Cluster 10): 0.97 | Fold-change of gene AT5G63790 (no apical meristem (NAM) family protein) (247351_at, Cluster 9): 0.49 | Fold-change of gene AT5G62630 (expressed protein) (247444_at, Cluster 7): 1.26 | Fold-change of gene AT5G60850 (Dof-type zinc finger domain-containing protein) (247601_at, Cluster 10): 1.09 | Fold-change of gene AT5G59510 (expressed protein) (247704_at, Cluster 9): 0.98 | Fold-change of gene AT5G58660 (oxidoreductase. 2OG-Fe(II) oxygenase family protein) (247774_at, Cluster 5): 1.08 | Fold-change of gene AT5G54120 (expressed protein) (248190_at, Cluster 5): 1.04 | Fold-change of gene AT5G54130 (calcium-binding EF hand family protein) (248191_at, Cluster 5): 1.03 | Fold-change of gene AT5G52900 (expressed protein) (248282_at, Cluster 6): 0.74 | Fold-change of gene AT5G49100 (expressed protein) (248646_at, Cluster 9): 0.70 | Fold-change of gene AT5G18060 (auxin-responsive protein) (250012_x_at, Cluster 6): 0.76 | Fold-change of gene AT5G09800 (U-box domain-containing protein) (250493_at, Cluster 9): 0.80 | Fold-change of gene AT5G08565 (expressed protein) (250537_at, Cluster 8): 1.06 | Fold-change of gene AT5G03670 (expressed protein) (250907_at, Cluster 5): 0.60 | Fold-change of gene AT5G01740 (expressed protein) (251072_at, Cluster 5): 0.53 | Fold-change of gene AT3G63380 (calcium-transporting ATPase) (251176_at, Cluster 10): 0.87 | Fold-change of gene AT3G60690 (auxin-responsive family protein) (251342_at, Cluster 9): 0.87 | Fold-change of gene AT3G45610 (Dof-type zinc finger domain) (252586_at, Cluster 10): 0.90 | Fold-change of gene AT3G44610 (protein kinase family protein) (252646_at, Cluster 5): 1.05 | Fold-change of gene AT4G34760 (auxin-responsive family protein) (253255_at, Cluster 6): 0.81 | Fold-change of gene AT4G34138 (UDP-glucoronosyl/UDP-glucosyl transferase family protein) (253281_at, Cluster 7): 1.17 | Fold-change of gene AT4G31910 (transferase family protein) (253483_at, Cluster 5): 1.15 | Fold-change of gene AT4G30410 (expressed protein) (253617_at, Cluster 5): 0.97 | Fold-change of gene AT4G30450 (glycine-rich protein) (253629_at, Cluster 5): 0.88 | Fold-change of gene AT4G26200 (1-aminocyclopropane-1-carboxylate synthase) (253999_at, Cluster 9): 0.29 | Fold-change of gene AT4G03400 (auxin-responsive GH3 family protein) (255403_at, Cluster 6): 0.59 | Fold-change of gene AT4G02700 (sulfate transporter) (255443_at, Cluster 7): 1.69 | Fold-change of gene AT1G22190 (AP2 domain-containing transcription factor) (255926_at, Cluster 8): 0.83 | Fold-change of gene AT1G66140 (zinc finger (C2H2 type) family protein) (256528_at, Cluster 6): 0.72 | Fold-change of gene AT3G25655 (expressed protein) (256762_at, Cluster 8): 0.98 | Fold-change of gene AT3G21420 (oxidoreductase, 2OG-Fe(II) oxygenase family protein) (256818_at, Cluster 7): 1.11 | Fold-change of gene AT3G18280 (protease inhibitor/seed storage/lipid transfer protein) (257066_at, Cluster 5): 1.06 | Fold-change of gene AT1G29440 (auxin-responsive family protein) (257506_at, Cluster 6): 0.69 | Fold-change of gene AT3G29200 (chorismate mutase, chloroplast (CM1)) (257746_at, Cluster 5): 0.89 | Fold-change of gene AT1G13260 (DNA-binding protein RAV1 (RAV1)) (259364_at, Cluster 8): 0.61 | Fold-change of gene AT1G29500 (auxin-responsive protein) (259773_at, Cluster 6): 0.79 | Fold-change of gene AT1G29510 (auxin-responsive protein) (259783_at, Cluster 6): 0.77 | Fold-change of gene AT1G29450 (auxin-responsive protein) (259784_at, Cluster 6): 0.75 | Fold-change of gene AT1G29460 (auxin-responsive protein) (259787_at, Cluster 6): 0.75 | Fold-change of gene AT1G76690; AT1G76680 ([AT1G76690, 12-oxophytodienoate reductase (OPR2)) (259875_s_at, Cluster 7): 0.85 | Fold-change of gene AT1G76620 (expressed protein) (259985_at, Cluster 8): 0.94 | Fold-change of gene AT1G63720 (expressed protein) (260243_at, Cluster 10): 0.74 | Fold-change of gene AT1G48100 (glycoside hydrolase family 28 protein) (260727_at, Cluster 8): 1.06 | Fold-change of gene AT1G12200 (flavin-containing monooxygenase family protein) (261023_at, Cluster 7): 1.11 | Fold-change of gene AT1G12845 (expressed protein) (261203_at, Cluster 6): 0.98 | Fold-change of gene AT1G15550 (gibberellin 3-beta-dioxygenase) (261768_at, Cluster 6): 0.77 | Fold-change of gene AT1G80840 (WRKY family transcription factor) (261892_at, Cluster 9): 0.27 | Fold-change of gene AT1G80080 (leucine-rich repeat family protein) (262040_at, Cluster 6): 0.77 | Fold-change of gene AT1G80130 (expressed protein) (262050_at, Cluster 8): 1.04 | Fold-change of gene AT1G21680 (expressed protein) (262505_at, Cluster 10): 1.12 | Fold-change of gene AT1G34245 (expressed protein) (262543_at, Cluster 6): 1.14 | Fold-change of gene AT1G78460 (SOUL heme-binding family protein) (263126_at, Cluster 7): 0.88 | Fold-change of gene AT1G78820; AT1G78830 ([AT1G78820, curculin-like (mannose-binding) lectin family protein) (264279_s_at, Cluster 7): 0.88
